From PubChem BioAssay (NCI)
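All cell lines were grown in 96-well plates and treated with compound for 48 hours. Here, GI50 denotes the concentration required for 50% inhibition of growth. The concentration for full growth arrest is given as TGI.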

How the values were obtained:
Experiment in all cases: NCI-60 cell line screen, 48 h
MDA-MB-435 = tested on: MDA-MB-435
OVCAR-4 ovarian = tested on: OVCAR-4 ovarian
MCF7 breast = tested on: MCF7 breast
DU-145 prostate = tested on: DU-145 prostate
SN12C renal = tested on: SN12C renal
NCI-H522 lung = tested on: NCI-H522 lung
SF-268 CNS = tested on: SF-268 CNS
K-562 leukemia = tested on: K-562 leukemia
SK-MEL-5 melanoma = tested on: SK-MEL-5 melanoma
HOP-92 NSCLC = tested on: HOP-92 NSCLC
SF-539 CNS = tested on: SF-539 CNS
COLO 205 colon = tested on: COLO 205 colon
RPMI-8226 leukemia = tested on: RPMI-8226 leukemia
SK-MEL-2 melanoma = tested on: SK-MEL-2 melanoma
UACC-257 melanoma = tested on: UACC-257 melanoma
BT-549 breast = tested on: BT-549 breast
HOP-62 NSCLC = tested on: HOP-62 NSCLC
CCRF-CEM leukemia = tested on: CCRF-CEM leukemia
SF-295 CNS = tested on: SF-295 CNS
EKVX NSCLC = tested on: EKVX NSCLC
MDA-MB-231 breast = tested on: MDA-MB-231 breast
M14 melanoma = tested on: M14 melanoma
SK-OV-3 ovarian = tested on: SK-OV-3 ovarian
PC-3 prostate = tested on: PC-3 prostate
NCI-H226 lung = tested on: NCI-H226 lung
KM12 colon = tested on: KM12 colon
UO-31 renal = tested on: UO-31 renal
HCT-15 colon = tested on: HCT-15 colon
U251 CNS = tested on: U251 CNS
SK-MEL-28 melanoma = tested on: SK-MEL-28 melanoma
OVCAR-8 ovarian = tested on: OVCAR-8 ovarian
RXF 393 renal = tested on: RXF 393 renal
HT29 colon = tested on: HT29 colon
HS 578T breast = tested on: HS 578T breast
TK-10 renal = tested on: TK-10 renal
UACC-62 melanoma = tested on: UACC-62 melanoma
NCI-H460 lung = tested on: NCI-H460 lung
A549 NSCLC = tested on: A549 NSCLC
SR leukemia = tested on: SR leukemia
LOX IMVI melanoma = tested on: LOX IMVI melanoma
A498 renal = tested on: A498 renal
786-0 renal = tested on: 786-0 renal
HL-60(TB) leukemia = tested on: HL-60(TB) leukemia
CAKI-1 renal = tested on: CAKI-1 renal
NCI/ADR-RES ovarian = tested on: NCI/ADR-RES ovarian
ACHN renal = tested on: ACHN renal
SNB-19 CNS = tested on: SNB-19 CNS
HCT-116 colon = tested on: HCT-116 colon
MOLT-4 leukemia = tested on: MOLT-4 leukemia
OVCAR-5 ovarian = tested on: OVCAR-5 ovarian
NCI-H23 lung = tested on: NCI-H23 lung
SW-620 colon = tested on: SW-620 colon
IGROV1 ovarian = tested on: IGROV1 ovarian
MALME-3M melanoma = tested on: MALME-3M melanoma
OVCAR-3 ovarian = tested on: OVCAR-3 ovarian
HCC-2998 colon = tested on: HCC-2998 colon
SNB-75 CNS = tested on: SNB-75 CNS

SMILES: COc1cc2c(cc1OCCCN1CCN(C)CC1)N=C[C@@H]1CCCN1C2=O
- TGI (MDA-MB-435): 3.77 µM
- TGI (OVCAR-4 ovarian): 4.78 µM
- TGI (MCF7 breast): > 100 µM
- TGI (DU-145 prostate): 5.98 µM
- TGI (SN12C renal): > 100 µM
- TGI (NCI-H522 lung): 0.518 µM
- TGI (SF-268 CNS): > 100 µM
- TGI (K-562 leukemia): 14.2 µM
- TGI (SK-MEL-5 melanoma): 9.29 µM
- TGI (HOP-92 NSCLC): 4.65 µM
- TGI (SF-539 CNS): 4.97 µM
- TGI (COLO 205 colon): 2.25 µM
- TGI (RPMI-8226 leukemia): 3.68 µM
- TGI (SK-MEL-2 melanoma): 7.41 µM
- TGI (UACC-257 melanoma): 5.68 µM
- TGI (BT-549 breast): 6.59 µM
- TGI (HOP-62 NSCLC): 9.64 µM
- TGI (CCRF-CEM leukemia): 10.6 µM
- TGI (SF-295 CNS): 5.37 µM
- TGI (EKVX NSCLC): 6.02 µM
- TGI (MDA-MB-231 breast): 22.3 µM
- TGI (M14 melanoma): 4.99 µM
- TGI (SK-OV-3 ovarian): 23.2 µM
- TGI (PC-3 prostate): 9.78 µM
- TGI (NCI-H226 lung): 4.62 µM
- TGI (KM12 colon): 4.95 µM
- TGI (UO-31 renal): > 100 µM
- TGI (HCT-15 colon): 7.02 µM
- TGI (U251 CNS): 14.5 µM
- TGI (SK-MEL-28 melanoma): 3.97 µM
- TGI (OVCAR-8 ovarian): 8.79 µM
- TGI (RXF 393 renal): 6.03 µM
- TGI (HT29 colon): 4.99 µM
- TGI (HS 578T breast): > 100 µM
- TGI (TK-10 renal): > 100 µM
- TGI (UACC-62 melanoma): 3.75 µM
- TGI (NCI-H460 lung): > 100 µM
- TGI (A549 NSCLC): 5.94 µM
- TGI (SR leukemia): 0.839 µM
- TGI (LOX IMVI melanoma): 4.38 µM
- TGI (A498 renal): 5.75 µM
- TGI (786-0 renal): 18.3 µM
- TGI (HL-60(TB) leukemia): 5.37 µM
- TGI (CAKI-1 renal): 3.12 µM
- TGI (NCI/ADR-RES ovarian): 21.1 µM
- TGI (ACHN renal): 6.12 µM
- TGI (SNB-19 CNS): > 100 µM
- TGI (HCT-116 colon): 9.47 µM
- TGI (MOLT-4 leukemia): 2.53 µM
- TGI (OVCAR-5 ovarian): 7.01 µM

SMILES: C=C1C(O)C2C(=C(CCC3CC3)C13CC3)C(=O)C(C)(C)C2O (configuration not stated)
- GI50 (MDA-MB-435): > 100 µM
- TGI (MDA-MB-435): > 100 µM
- GI50 (OVCAR-4 ovarian): > 100 µM
- TGI (OVCAR-4 ovarian): > 100 µM
- GI50 (MCF7 breast): 58.7 µM
- TGI (MCF7 breast): > 100 µM
- GI50 (DU-145 prostate): > 100 µM
- TGI (DU-145 prostate): > 100 µM
- GI50 (SN12C renal): 71.3 µM
- TGI (SN12C renal): > 100 µM
- GI50 (NCI-H522 lung): 60.4 µM
- TGI (NCI-H522 lung): > 100 µM
- GI50 (SF-268 CNS): > 100 µM
- TGI (SF-268 CNS): > 100 µM
- GI50 (K-562 leukemia): 61.3 µM
- TGI (K-562 leukemia): > 100 µM
- GI50 (SK-MEL-5 melanoma): 42.1 µM
- TGI (SK-MEL-5 melanoma): > 100 µM
- GI50 (HOP-92 NSCLC): 34.2 µM
- TGI (HOP-92 NSCLC): > 100 µM
- GI50 (SF-539 CNS): > 100 µM
- TGI (SF-539 CNS): > 100 µM
- GI50 (COLO 205 colon): > 100 µM
- TGI (COLO 205 colon): > 100 µM
- GI50 (RPMI-8226 leukemia): 43.7 µM
- TGI (RPMI-8226 leukemia): > 100 µM
- GI50 (SK-MEL-2 melanoma): > 100 µM
- TGI (SK-MEL-2 melanoma): > 100 µM
- GI50 (UACC-257 melanoma): 71.3 µM
- TGI (UACC-257 melanoma): > 100 µM
- GI50 (NCI-H23 lung): 76.2 µM
- TGI (NCI-H23 lung): > 100 µM
- GI50 (BT-549 breast): > 100 µM
- TGI (BT-549 breast): > 100 µM
- GI50 (HOP-62 NSCLC): > 100 µM
- TGI (HOP-62 NSCLC): > 100 µM
- GI50 (CCRF-CEM leukemia): > 100 µM
- TGI (CCRF-CEM leukemia): > 100 µM
- GI50 (SF-295 CNS): 55.8 µM
- TGI (SF-295 CNS): > 100 µM
- GI50 (EKVX NSCLC): > 100 µM
- TGI (EKVX NSCLC): > 100 µM
- GI50 (MDA-MB-231 breast): 29.1 µM
- TGI (MDA-MB-231 breast): 99 µM
- GI50 (M14 melanoma): > 100 µM
- TGI (M14 melanoma): > 100 µM
- GI50 (SK-OV-3 ovarian): 30.1 µM
- TGI (SK-OV-3 ovarian): > 100 µM
- GI50 (PC-3 prostate): 92.3 µM
- TGI (PC-3 prostate): > 100 µM
- GI50 (NCI-H226 lung): > 100 µM
- TGI (NCI-H226 lung): > 100 µM
- GI50 (KM12 colon): > 100 µM
- TGI (KM12 colon): > 100 µM
- GI50 (UO-31 renal): > 100 µM
- TGI (UO-31 renal): > 100 µM
- GI50 (HCT-15 colon): > 100 µM
- TGI (HCT-15 colon): > 100 µM
- GI50 (U251 CNS): 89.9 µM
- TGI (U251 CNS): > 100 µM
- GI50 (SW-620 colon): > 100 µM
- TGI (SW-620 colon): > 100 µM
- GI50 (SK-MEL-28 melanoma): 76.2 µM
- TGI (SK-MEL-28 melanoma): > 100 µM
- GI50 (OVCAR-8 ovarian): > 100 µM
- TGI (OVCAR-8 ovarian): > 100 µM
- GI50 (RXF 393 renal): 32.9 µM
- TGI (RXF 393 renal): > 100 µM
- GI50 (HT29 colon): > 100 µM
- TGI (HT29 colon): > 100 µM
- GI50 (IGROV1 ovarian): > 100 µM
- TGI (IGROV1 ovarian): > 100 µM
- GI50 (HS 578T breast): 25.7 µM
- TGI (HS 578T breast): > 100 µM
- GI50 (TK-10 renal): > 100 µM
- TGI (TK-10 renal): > 100 µM
- GI50 (UACC-62 melanoma): 87.4 µM
- TGI (UACC-62 melanoma): > 100 µM
- GI50 (MALME-3M melanoma): > 100 µM
- TGI (MALME-3M melanoma): > 100 µM
- GI50 (OVCAR-3 ovarian): 59.5 µM
- TGI (OVCAR-3 ovarian): > 100 µM
- GI50 (NCI-H460 lung): 80.9 µM
- TGI (NCI-H460 lung): > 100 µM
- GI50 (HCC-2998 colon): > 100 µM
- TGI (HCC-2998 colon): > 100 µM
- GI50 (A549 NSCLC): > 100 µM
- TGI (A549 NSCLC): > 100 µM
- GI50 (SR leukemia): 32.1 µM
- TGI (SR leukemia): > 100 µM
- GI50 (LOX IMVI melanoma): > 100 µM
- TGI (LOX IMVI melanoma): > 100 µM
- GI50 (SNB-75 CNS): 23.2 µM
- TGI (SNB-75 CNS): > 100 µM
- GI50 (786-0 renal): > 100 µM
- TGI (786-0 renal): > 100 µM
- GI50 (HL-60(TB) leukemia): > 100 µM
- TGI (HL-60(TB) leukemia): > 100 µM
- GI50 (CAKI-1 renal): 45.8 µM
- TGI (CAKI-1 renal): > 100 µM
- GI50 (NCI/ADR-RES ovarian): > 100 µM
- TGI (NCI/ADR-RES ovarian): > 100 µM
- GI50 (ACHN renal): > 100 µM
- TGI (ACHN renal): > 100 µM
- GI50 (SNB-19 CNS): > 100 µM
- TGI (SNB-19 CNS): > 100 µM
- GI50 (HCT-116 colon): > 100 µM
- TGI (HCT-116 colon): > 100 µM
- GI50 (MOLT-4 leukemia): 44.3 µM
- TGI (MOLT-4 leukemia): > 100 µM
- GI50 (OVCAR-5 ovarian): > 100 µM
- TGI (OVCAR-5 ovarian): > 100 µM
